Columns and labels:
[1] = molecular target: Serine/threonine-protein kinase B-raf (Homo sapiens) (UniProt P15056); conditions: Compound concentration 1000.0 nM
[2] = molecular target: Serine/threonine-protein kinase Nek11 (Homo sapiens) (UniProt Q8NG66); conditions: Compound concentration 1000.0 nM
[3] = molecular target: Serine/threonine-protein kinase 32A (Homo sapiens) (UniProt Q8WU08); conditions: Compound concentration 1000.0 nM
[4] = molecular target: D(3) dopamine receptor (Homo sapiens) (UniProt P35462); conditions: Compound concentration 10.0 uM
[5] = molecular target: Calcium/calmodulin-dependent protein kinase type II subunit alpha (Homo sapiens) (UniProt Q9UQM7); conditions: Compound concentration 1000.0 nM
[6] = molecular target: Non-receptor tyrosine-protein kinase TYK2 (Homo sapiens) (UniProt P29597); conditions: Compound concentration 1000.0 nM
[7] = molecular target: Mitogen-activated protein kinase kinase kinase 5 (Homo sapiens) (UniProt Q99683); conditions: Compound concentration 1000.0 nM
[8] = molecular target: Cyclin-dependent kinase 4 (Homo sapiens) (UniProt P11802); conditions: Compound concentration 1000.0 nM
[9] = molecular target: Cyclin-dependent kinase 5 (Homo sapiens) (UniProt Q00535); conditions: Compound concentration 1000.0 nM
[10] = molecular target: NUAK family SNF1-like kinase 1 (Homo sapiens) (UniProt O60285); conditions: Compound concentration 1000.0 nM
[11] = molecular target: STE20/SPS1-related proline-alanine-rich protein kinase (Homo sapiens) (UniProt Q9UEW8); conditions: Compound concentration 1000.0 nM
[12] = molecular target: Histamine H2 receptor (Homo sapiens) (UniProt P25021); conditions: Compound concentration 10.0 uM
[13] = molecular target: Glycogen synthase kinase-3 alpha (Homo sapiens) (UniProt P49840); conditions: Compound concentration 1000.0 nM
[14] = molecular target: Tyrosine-protein kinase Yes (Homo sapiens) (UniProt P07947); conditions: Compound concentration 1000.0 nM
[15] = molecular target: Mitogen-activated protein kinase 14 (Homo sapiens) (UniProt Q16539); conditions: Compound concentration 1000.0 nM
[16] = molecular target: Mitotic checkpoint serine/threonine-protein kinase BUB1 (Homo sapiens) (UniProt O43683); conditions: Compound concentration 1000.0 nM
[17] = molecular target: Serine/threonine-protein kinase LATS1 (Homo sapiens) (UniProt O95835); conditions: Compound concentration 1000.0 nM
[18] = test system: Tyrosine-protein kinase ABL1 (Homo sapiens), P00519 [T315I]; conditions: Compound concentration 1000.0 nM
[19] = molecular target: Serine/threonine-protein kinase Nek5 (Homo sapiens) (UniProt Q6P3R8); conditions: Compound concentration 1000.0 nM
[20] = molecular target: STE20-like serine/threonine-protein kinase (Homo sapiens) (UniProt Q9H2G2); conditions: Compound concentration 1000.0 nM
[21] = test system: Epidermal growth factor receptor (Homo sapiens), P00533 [UNDEFINED MUTATION]; conditions: Compound concentration 1000.0 nM
[22] = test system: Phosphatidylinositol 4,5-bisphosphate 3-kinase catalytic subunit alpha isoform (Homo sapiens), P42336 [E542K]; conditions: Compound concentration 1000.0 nM
[23] = molecular target: Dual specificity tyrosine-phosphorylation-regulated kinase 1A (Homo sapiens) (UniProt Q13627); conditions: Compound concentration 1000.0 nM
[24] = molecular target: Histamine H1 receptor (Homo sapiens) (UniProt P35367); conditions: Compound concentration 10.0 uM
[25] = molecular target: GABA-A receptor; anion channel (Rattus norvegicus) (UniProt O09028+P15431+P18506+P18508+P19969+P20236+P23574+P23576+P28471+P28473+P30191+P62813+P63079+P63138+Q91ZM7+Q9ES14); conditions: Compound concentration 10.0 uM
[26] = molecular target: Serine/threonine-protein kinase D2 (Homo sapiens) (UniProt Q9BZL6); conditions: Compound concentration 1000.0 nM
[27] = molecular target: Dual specificity mitogen-activated protein kinase kinase 1 (Homo sapiens) (UniProt Q02750); conditions: Compound concentration 1000.0 nM
[28] = molecular target: Cyclin-dependent kinase 4 (Homo sapiens) (UniProt P11802); conditions: Compound concentration 1000.0 nM; remark: listed apart in the source
[29] = molecular target: Maternal embryonic leucine zipper kinase (Homo sapiens) (UniProt Q14680); conditions: Compound concentration 1000.0 nM
[30] = test system: Tyrosine-protein kinase ABL1 (Homo sapiens), P00519 [F317L]; conditions: Compound concentration 1000.0 nM
[31] = molecular target: Cyclin-dependent kinase 4 (Homo sapiens) (UniProt P11802); conditions: Compound concentration 1000.0 nM; remark: listed apart in the source
[32] = molecular target: Tyrosine-protein kinase Mer (Homo sapiens) (UniProt Q12866); conditions: Compound concentration 1000.0 nM
[33] = molecular target: Phosphatidylinositol 4-phosphate 3-kinase C2 domain-containing subunit beta (Homo sapiens) (UniProt O00750); conditions: Compound concentration 1000.0 nM
[34] = molecular target: Inhibitor of nuclear factor kappa-B kinase subunit beta (Homo sapiens) (UniProt O14920); conditions: Compound concentration 1000.0 nM
[35] = molecular target: Ephrin type-A receptor 4 (Homo sapiens) (UniProt P54764); conditions: Compound concentration 1000.0 nM
[36] = molecular target: Ribosomal protein S6 kinase alpha-4 (Homo sapiens) (UniProt O75676); conditions: Compound concentration 1000.0 nM
[37] = molecular target: Cyclin-dependent kinase 17 (Homo sapiens) (UniProt Q00537); conditions: Compound concentration 1000.0 nM
[38] = molecular target: Epidermal growth factor receptor (Homo sapiens) (UniProt P00533); conditions: Compound concentration 1000.0 nM
[39] = molecular target: Vascular endothelial growth factor receptor 1 (Homo sapiens) (UniProt P17948); conditions: Compound concentration 1000.0 nM
[40] = molecular target: Casein kinase I isoform gamma-1 (Homo sapiens) (UniProt Q9HCP0); conditions: Compound concentration 1000.0 nM
[41] = molecular target: Tyrosine-protein kinase Tec (Homo sapiens) (UniProt P42680); conditions: Compound concentration 1000.0 nM
[42] = molecular target: Serine/threonine-protein kinase VRK2 (Homo sapiens) (UniProt Q86Y07); conditions: Compound concentration 1000.0 nM
[43] = molecular target: Serine/threonine-protein kinase PAK 2 (Homo sapiens) (UniProt Q13177); conditions: Compound concentration 1000.0 nM

Chain of Cyclin-dependent kinase 4 (Homo sapiens) (P11802 whole entry): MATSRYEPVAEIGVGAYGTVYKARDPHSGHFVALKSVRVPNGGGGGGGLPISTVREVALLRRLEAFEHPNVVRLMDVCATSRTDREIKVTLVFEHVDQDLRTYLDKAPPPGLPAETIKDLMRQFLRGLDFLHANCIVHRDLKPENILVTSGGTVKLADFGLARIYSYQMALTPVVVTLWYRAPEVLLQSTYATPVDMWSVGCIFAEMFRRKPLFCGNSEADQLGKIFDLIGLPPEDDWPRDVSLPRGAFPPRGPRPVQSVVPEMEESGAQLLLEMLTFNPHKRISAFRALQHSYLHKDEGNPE
Chain of Glycogen synthase kinase-3 alpha (Homo sapiens) (P49840 2-483 limits assumed): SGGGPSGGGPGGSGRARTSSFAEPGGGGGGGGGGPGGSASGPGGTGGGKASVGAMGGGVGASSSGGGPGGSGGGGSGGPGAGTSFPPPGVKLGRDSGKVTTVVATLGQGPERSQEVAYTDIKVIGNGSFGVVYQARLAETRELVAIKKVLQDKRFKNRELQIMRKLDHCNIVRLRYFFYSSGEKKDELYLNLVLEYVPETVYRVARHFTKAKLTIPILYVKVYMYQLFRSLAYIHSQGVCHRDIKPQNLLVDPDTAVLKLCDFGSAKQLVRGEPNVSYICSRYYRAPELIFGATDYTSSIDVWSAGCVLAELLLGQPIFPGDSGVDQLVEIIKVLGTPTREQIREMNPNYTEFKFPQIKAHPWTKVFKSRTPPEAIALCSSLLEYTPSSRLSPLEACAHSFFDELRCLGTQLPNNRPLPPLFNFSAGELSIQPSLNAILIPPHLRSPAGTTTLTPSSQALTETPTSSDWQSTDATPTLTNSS
Chain of Inhibitor of nuclear factor kappa-B kinase subunit beta (Homo sapiens) (O14920 whole entry): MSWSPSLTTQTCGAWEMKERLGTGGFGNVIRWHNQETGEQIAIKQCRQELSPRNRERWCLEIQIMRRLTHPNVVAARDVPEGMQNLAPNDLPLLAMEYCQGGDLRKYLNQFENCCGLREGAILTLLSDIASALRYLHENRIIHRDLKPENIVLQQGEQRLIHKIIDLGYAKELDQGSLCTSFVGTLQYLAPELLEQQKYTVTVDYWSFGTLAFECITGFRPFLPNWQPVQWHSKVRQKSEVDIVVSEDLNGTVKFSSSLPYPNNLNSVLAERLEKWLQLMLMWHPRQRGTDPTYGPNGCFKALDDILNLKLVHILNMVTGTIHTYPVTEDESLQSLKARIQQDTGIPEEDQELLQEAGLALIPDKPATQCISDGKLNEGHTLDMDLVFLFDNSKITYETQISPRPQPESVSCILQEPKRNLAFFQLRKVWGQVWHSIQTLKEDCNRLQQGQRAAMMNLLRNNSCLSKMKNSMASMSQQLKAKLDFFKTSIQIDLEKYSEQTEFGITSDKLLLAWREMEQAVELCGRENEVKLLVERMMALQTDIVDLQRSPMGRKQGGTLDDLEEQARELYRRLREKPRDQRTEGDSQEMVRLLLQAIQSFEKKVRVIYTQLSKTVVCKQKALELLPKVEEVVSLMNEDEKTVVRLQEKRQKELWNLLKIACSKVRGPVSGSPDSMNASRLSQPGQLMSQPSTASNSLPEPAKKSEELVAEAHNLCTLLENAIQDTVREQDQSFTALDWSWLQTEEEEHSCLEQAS
Chain of Vascular endothelial growth factor receptor 1 (Homo sapiens) (P17948 whole entry, canonical isoform): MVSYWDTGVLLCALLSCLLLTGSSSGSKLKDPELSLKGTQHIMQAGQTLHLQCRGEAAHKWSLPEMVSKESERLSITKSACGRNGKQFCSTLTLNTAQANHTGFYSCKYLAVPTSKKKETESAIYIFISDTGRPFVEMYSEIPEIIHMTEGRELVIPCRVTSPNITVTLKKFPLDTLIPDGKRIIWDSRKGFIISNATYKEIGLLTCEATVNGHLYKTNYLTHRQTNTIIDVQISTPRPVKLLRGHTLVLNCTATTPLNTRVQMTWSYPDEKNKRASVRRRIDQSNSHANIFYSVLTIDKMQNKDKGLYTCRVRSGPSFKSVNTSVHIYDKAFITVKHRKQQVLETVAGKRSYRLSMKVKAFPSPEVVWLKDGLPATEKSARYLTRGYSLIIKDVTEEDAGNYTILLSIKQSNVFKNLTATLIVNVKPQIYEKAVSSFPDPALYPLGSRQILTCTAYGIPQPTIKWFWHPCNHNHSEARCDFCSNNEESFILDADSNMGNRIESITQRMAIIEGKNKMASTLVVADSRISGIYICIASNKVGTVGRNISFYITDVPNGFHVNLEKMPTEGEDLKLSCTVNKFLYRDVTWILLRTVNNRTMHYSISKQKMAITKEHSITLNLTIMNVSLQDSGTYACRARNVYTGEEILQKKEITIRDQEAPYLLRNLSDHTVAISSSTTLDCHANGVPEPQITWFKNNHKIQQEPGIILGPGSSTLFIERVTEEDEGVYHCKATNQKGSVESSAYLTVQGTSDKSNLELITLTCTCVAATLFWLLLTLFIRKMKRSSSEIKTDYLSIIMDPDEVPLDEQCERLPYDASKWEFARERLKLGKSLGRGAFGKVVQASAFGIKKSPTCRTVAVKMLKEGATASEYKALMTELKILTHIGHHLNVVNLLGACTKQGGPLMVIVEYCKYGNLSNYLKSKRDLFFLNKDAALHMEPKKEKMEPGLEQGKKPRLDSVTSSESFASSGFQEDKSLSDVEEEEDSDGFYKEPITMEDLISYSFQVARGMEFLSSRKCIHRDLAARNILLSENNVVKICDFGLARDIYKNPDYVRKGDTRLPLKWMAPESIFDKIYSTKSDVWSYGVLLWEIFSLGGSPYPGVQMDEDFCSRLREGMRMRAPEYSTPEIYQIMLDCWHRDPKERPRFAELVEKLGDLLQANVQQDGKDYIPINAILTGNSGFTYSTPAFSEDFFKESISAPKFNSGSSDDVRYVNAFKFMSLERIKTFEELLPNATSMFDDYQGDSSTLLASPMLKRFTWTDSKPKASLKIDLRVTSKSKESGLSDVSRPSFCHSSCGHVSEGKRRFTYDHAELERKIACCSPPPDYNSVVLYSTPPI
Chain of Serine/threonine-protein kinase 32A (Homo sapiens) (Q8WU08 whole entry): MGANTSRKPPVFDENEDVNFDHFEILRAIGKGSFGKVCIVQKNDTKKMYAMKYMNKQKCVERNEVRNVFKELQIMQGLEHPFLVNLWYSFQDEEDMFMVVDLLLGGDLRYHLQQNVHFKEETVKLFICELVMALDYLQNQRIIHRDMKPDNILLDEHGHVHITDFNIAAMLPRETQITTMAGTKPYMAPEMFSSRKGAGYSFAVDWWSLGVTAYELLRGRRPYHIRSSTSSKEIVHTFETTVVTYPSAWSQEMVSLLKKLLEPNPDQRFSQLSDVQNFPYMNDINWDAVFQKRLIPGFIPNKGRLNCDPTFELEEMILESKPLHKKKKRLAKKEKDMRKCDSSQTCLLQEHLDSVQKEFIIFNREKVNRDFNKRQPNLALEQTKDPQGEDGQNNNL
Chain of Ribosomal protein S6 kinase alpha-4 (Homo sapiens) (O75676 whole entry, looked up): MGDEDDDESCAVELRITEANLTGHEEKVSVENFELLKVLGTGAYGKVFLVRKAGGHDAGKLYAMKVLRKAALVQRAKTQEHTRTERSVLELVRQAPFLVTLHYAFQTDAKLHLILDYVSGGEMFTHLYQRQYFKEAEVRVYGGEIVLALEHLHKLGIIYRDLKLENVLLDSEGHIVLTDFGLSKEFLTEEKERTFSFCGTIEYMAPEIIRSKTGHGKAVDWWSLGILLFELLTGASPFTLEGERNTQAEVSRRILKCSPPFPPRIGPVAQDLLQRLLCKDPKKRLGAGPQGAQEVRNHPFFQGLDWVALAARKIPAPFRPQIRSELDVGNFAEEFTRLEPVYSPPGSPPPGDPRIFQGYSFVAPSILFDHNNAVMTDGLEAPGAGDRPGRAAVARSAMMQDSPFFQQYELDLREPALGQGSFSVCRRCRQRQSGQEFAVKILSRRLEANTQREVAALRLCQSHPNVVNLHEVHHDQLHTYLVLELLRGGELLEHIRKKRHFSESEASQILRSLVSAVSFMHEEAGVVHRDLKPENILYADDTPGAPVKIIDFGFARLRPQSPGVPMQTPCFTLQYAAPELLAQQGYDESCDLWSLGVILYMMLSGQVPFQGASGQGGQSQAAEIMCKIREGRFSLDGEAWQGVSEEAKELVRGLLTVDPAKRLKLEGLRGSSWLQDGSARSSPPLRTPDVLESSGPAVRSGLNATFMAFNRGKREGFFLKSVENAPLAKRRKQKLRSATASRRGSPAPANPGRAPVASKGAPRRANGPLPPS
Chain of Tyrosine-protein kinase Yes (Homo sapiens) (P07947 2-543 limits assumed): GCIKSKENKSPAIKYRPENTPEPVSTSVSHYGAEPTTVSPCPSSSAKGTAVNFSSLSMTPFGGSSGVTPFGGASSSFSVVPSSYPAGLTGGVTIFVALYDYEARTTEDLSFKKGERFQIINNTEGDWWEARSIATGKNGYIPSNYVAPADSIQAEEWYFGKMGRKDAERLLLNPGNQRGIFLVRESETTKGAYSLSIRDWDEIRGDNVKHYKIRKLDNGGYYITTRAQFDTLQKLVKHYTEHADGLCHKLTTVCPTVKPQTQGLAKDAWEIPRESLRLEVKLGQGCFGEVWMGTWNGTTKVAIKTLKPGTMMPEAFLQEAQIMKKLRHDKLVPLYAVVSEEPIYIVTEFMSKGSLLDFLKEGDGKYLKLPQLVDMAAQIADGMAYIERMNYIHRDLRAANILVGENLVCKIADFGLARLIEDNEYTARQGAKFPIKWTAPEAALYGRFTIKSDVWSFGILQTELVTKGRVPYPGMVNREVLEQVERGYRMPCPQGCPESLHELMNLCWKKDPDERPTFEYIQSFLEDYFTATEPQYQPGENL
Chain of Cyclin-dependent kinase 5 (Homo sapiens) (Q00535 whole entry, looked up): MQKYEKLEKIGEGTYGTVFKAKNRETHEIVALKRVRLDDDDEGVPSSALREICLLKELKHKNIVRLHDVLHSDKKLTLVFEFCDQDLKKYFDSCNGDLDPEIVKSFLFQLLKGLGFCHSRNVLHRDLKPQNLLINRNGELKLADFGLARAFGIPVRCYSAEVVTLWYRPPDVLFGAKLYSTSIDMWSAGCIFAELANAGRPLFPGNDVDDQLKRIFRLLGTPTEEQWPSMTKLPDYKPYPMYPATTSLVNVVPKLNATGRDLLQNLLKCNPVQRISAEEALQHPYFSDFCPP

O=C(O)[C@@H]1[C@@H](Cn2nnc3ccccc3c2=O)CC[C@H]1C(=O)c1ccc(OCCC2CCOCC2)cc1 [BAY-694]
residual activity [1]: 100%
residual activity [2]: 100%
residual activity [3]: 92%
inhibition [4]: -4.94%
residual activity [5]: 100%
residual activity [6]: 58%
residual activity [7]: 94%
residual activity [8]: 96%
residual activity [9]: 81%
residual activity [10]: 84%
residual activity [11]: 96%
inhibition [12]: 17.5%
residual activity [13]: 93%
residual activity [14]: 100%
residual activity [15]: 89%
residual activity [16]: 73%
residual activity [17]: 90%
residual activity [18]: 100%
residual activity [19]: 100%
residual activity [20]: 88%
residual activity [21]: 53%
residual activity [22]: 62%
residual activity [23]: 94%
inhibition [24]: 1.6%
inhibition [25]: 10.2%
residual activity [26]: 73%
residual activity [27]: 81%
residual activity [28]: 83%
residual activity [29]: 85%
residual activity [30]: 92%
residual activity [31]: 86%
residual activity [32]: 100%
residual activity [33]: 100%
residual activity [34]: 100%
residual activity [35]: 92%
residual activity [36]: 100%
residual activity [37]: 88%
residual activity [38]: 90%
residual activity [39]: 100%
residual activity [40]: 99%
residual activity [41]: 95%
residual activity [42]: 80%
residual activity [43]: 82%

O=C(O)[C@H]1[C@H](Cn2nnc3ccccc3c2=O)CC[C@@H]1C(=O)c1ccc(OCCC2CCOCC2)cc1 [BAY-7598]
residual activity [1]: 100%
residual activity [2]: 100%
residual activity [3]: 88%
inhibition [4]: 7.27%
residual activity [5]: 100%
residual activity [6]: 41%
residual activity [7]: 95%
residual activity [8]: 89%
residual activity [9]: 100%
residual activity [10]: 71%
residual activity [11]: 95%
inhibition [12]: 12.6%
residual activity [13]: 74%
residual activity [14]: 100%
residual activity [15]: 85%
residual activity [16]: 85%
residual activity [17]: 84%
residual activity [18]: 100%
residual activity [19]: 97%
residual activity [20]: 96%
residual activity [21]: 40%
residual activity [22]: 71%
residual activity [23]: 85%
inhibition [24]: -8.85%
inhibition [25]: 7.4%
residual activity [26]: 73%
residual activity [27]: 100%
residual activity [28]: 89%
residual activity [29]: 96%
residual activity [30]: 81%
residual activity [31]: 96%
residual activity [32]: 61%
residual activity [33]: 90%
residual activity [34]: 100%
residual activity [35]: 90%
residual activity [36]: 100%
residual activity [37]: 74%
residual activity [38]: 88%
residual activity [39]: 96%
residual activity [40]: 94%
residual activity [41]: 100%
residual activity [42]: 80%
residual activity [43]: 69%

Source: ChEMBL document CHEMBL4507264, “Data for DCP probe BAY-7598” (2021)
